Tested on: D54 ERlucT glycosylation luciferase reporter, luminescence, 24 h
Assay: blockers of NLG process in reporter cells – D54 ERlucT cells, luminescence, cherry-picks, dose response (AID 624491);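 further: signal gain reflects blocked N-linked glycosylation of a luciferase reporter; actives raise luciferase signal so AC26 marks activators of the reporter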

Going from `O=C(CC1Nc2ccccc2NC1=O)Nc1ccccc1` (stereo not given) to `Cc1ccc(C)n1-c1cccc(NC(=O)c2ccccc2)c1`, the AC26 rises from 4880 nM to 8830 nM (1.8-fold).

`CCOc1cc(/C=C/C(=O)c2ccc3c(c2)OCCO3)ccc1OCC(=O)N(C)C` and `COc1ccc(/C=C/C(=O)c2ccc3c(c2)OCCO3)cc1[N+](=O)[O-]` are within 1.5-fold of each other in AC26: 3700 nM for the first, 5050 nM for the second.

Compared with `COc1ccc(-c2cc(C)no2)cc1S(=O)(=O)Nc1ccccc1`, `COc1ccc(CCCC(=O)NCc2ccccc2)cc1C` is 1.7-fold higher in AC26: 3740 nM for the first, 6540 nM for the second.

Going from `O=C1Nc2ccccc2/C1=C/c1nc2ccccc2c(=O)n1-c1ccc(O)cc1` to `CCOc1ccc(Nc2c3ccccc3nc3ccccc23)cc1`, the AC26 falls from 11500 nM to 365 nM (32-fold).

`CCOC(=O)c1[nH]c(C)c(C(=O)Nc2ccc(C)cc2C)c1C` and `Cc1[nH]c(C)c(C(=O)/C=C/c2ccc([N+](=O)[O-])cc2)c1C` are within 1.5-fold of each other in AC26: 494 nM for the first, 633 nM for the second.

Going from `NNC(=O)c1oc2nc(-c3cccs3)cc(-c3ccco3)c2c1N` to `Cc1ccc(NC(=O)CSc2nnc(-c3ccco3)c(-c3ccco3)n2)cc1`, the AC26 falls from 2640 nM to 1240 nM (2.1-fold).

Compared with `CCN1C(=O)c2cccc3c(S(=O)(=O)Nc4ccccn4)ccc1c23`, `CN(C)CCCN1C(=O)c2cccc3c(Br)ccc(c23)C1=O` is 3.3-fold lower in AC26: 2870 nM for the first, 871 nM for the second.

Compared with `Cc1ccc(CC(=O)NCc2ccc(F)cc2)cc1`, `Cc1ccc(/C=N/NC(=O)c2sccc2OCc2ccc(F)cc2)cc1` is 3-fold higher in AC26: 824 nM for the first, 2440 nM for the second.

Compared with `O=C(Nc1cccc(NC(=O)c2cccs2)c1)c1ccc([N+](=O)[O-])o1`, `CC(=O)c1cccc(-c2ccnc3c2CC(C(=O)NCc2cccs2)O3)c1` (stereo not given) is 1.7-fold lower in AC26: 1820 nM for the first, 1070 nM for the second.

Going from `COc1cc2c(cc1OC)C(c1ccccc1)N(C(=O)c1ccco1)CC2` (stereo not given) to `COc1cc2c(cc1OC)CN(c1ccc(-c3ccccc3OC)nn1)CC2`, the AC26 rises from 315 nM to 3380 nM (11-fold).

Compared with `CCN(CC)CCn1c2ccccc2c2nc3ccc([N+](=O)[O-])cc3cc21`, `CCN(CC)CCCNc1cc(C)c(C#N)c2nc3ccccc3n12` is 2.2-fold higher in AC26: 7740 nM for the first, 17000 nM for the second.

Going from `O=C(NCc1ccccc1)C(=O)NCC1COc2ccccc2O1` (stereo not given) to `NC(=O)c1cccc(-c2ccnc3c2CC(C(=O)NCc2ccccc2)O3)c1` (stereo not given), the AC26 falls from 13000 nM to 2000 nM (6.5-fold).

First: CCCCn1c(SCc2c(C)noc2C)nc2cc(S(N)(=O)=O)ccc21
Second: CCc1cc2c(=O)n(Cc3ccco3)c(SCc3c(C)noc3C)nc2s1
The AC26 of the first is 4.8-fold higher: 1190 nM for the first, 249 nM for the second.

Compared with `CC(=O)Nc1cccc(-c2ccnc3c2CC(C)(C(=O)NCC2CC2)O3)c1` (stereo not given), `CC1(C(=O)NCc2cccs2)Cc2c(-c3ccc4c(c3)OCO4)ccnc2O1` (stereo not given) is 2.5-fold lower in AC26: 5110 nM for the first, 2060 nM for the second.

First: Cn1c(=O)n(C)c2cc(S(=O)(=O)N3CCCc4ccccc43)ccc21
Second: COC(=O)c1ccc(C)c(NS(=O)(=O)c2ccc3c(c2)OCCO3)c1
The AC26 of the first is 79-fold higher: 3550 nM for the first, 44.7 nM for the second.

First: CC1CCCCN1C(=O)NC12CC3CC(CC(C3)C1)C2 (stereo not given)
Second: O=C(CN1C(=O)NC2(CCCCCC2)C1=O)Nc1ccc2c(c1)CCC2
The AC26 of the first is 2.1-fold higher: 4170 nM for the first, 1970 nM for the second.

`COc1ccc(-c2cc(C(=O)NCC(c3ccccc3)N(C)C)c3ccccc3n2)cc1OC` (stereo not given) and `COc1cc(NC(=O)c2cc(-c3ccccc3)nc3c2cnn3C(C)C)cc(OC)c1OC` are within 1.5-fold of each other in AC26: 1320 nM for the first, 1150 nM for the second.

Going from `COc1cc(Nc2nc3c(N)cc(C(F)(F)F)cc3nc2-c2ccccc2)cc(OC)c1OC` to `COc1ccc(-c2cc(-c3ccc(O)cc3)nc(N)c2C#N)cc1OC`, the AC26 rises from 868 nM to 4050 nM (4.7-fold).

First: O=C(/C=C/c1cn(-c2ccccc2)nc1-c1cccnc1)c1ccco1
Second: C=CCOc1ccc(C(=O)Nc2ccccc2C(=O)NCc2cccnc2)cc1
The AC26 of the first is 3.4-fold lower: 628 nM for the first, 2160 nM for the second.

First: CN(C)CCCN1C(=O)c2cccc3c([N+](=O)[O-])ccc(c23)C1=O
Second: CCN(CC)CCNc1ccc(CO)c2oc3ccccc3c(=O)c12
The AC26 of the first is 7.6-fold lower: 169 nM for the first, 1280 nM for the second.

Compared with `OCCCNc1c2ccccc2nc2ccccc12`, `CC(=O)c1cccc(Nc2c3c(nc4ccccc24)CCC3)c1` is 1.8-fold higher in AC26: 467 nM for the first, 819 nM for the second.

Going from `Cc1cccn2c(=O)c3cc(C(=O)NC4CCCC4)n(C)c3nc12` to `COC(=O)c1ccc(C(=O)NC2CCCc3c2cnn3-c2ccccc2F)nc1` (stereo not given), the AC26 falls from 15100 nM to 4140 nM (3.6-fold).

First: O=c1[nH]c(=O)c2nc3c4ccccc4c4ccccc4c3nc2[nH]1
Second: CCOC(=O)c1ccccc1Nc1cn(C(C)=O)c2ccccc12
The AC26 of the first is 4.6-fold lower: 392 nM for the first, 1790 nM for the second.

`COc1cccc(C2=NOC(C(=O)NCc3ccc(F)cc3)C2)c1` (stereo not given) and `CC(=O)c1cccc(-c2ccnc3c2CC(C(=O)NCc2ccc(F)c(F)c2)O3)c1` (stereo not given) are within 1.5-fold of each other in AC26: 1160 nM for the first, 1370 nM for the second.

First: C[C@H]1CN([C@@H](C)CO)C(=O)Cc2cc(NC(=O)CCC(F)(F)F)ccc2O[C@H]1CN(C)S(=O)(=O)c1ccc(Cl)cc1
Second: O=C(N/N=C\c1ccc(CNS(=O)(=O)c2ccc(Cl)cc2)o1)C(=O)Nc1ccc(Oc2ccccc2)cc1
The AC26 of the first is 2.2-fold lower: 2260 nM for the first, 4890 nM for the second.

First: CC(C)C(=O)Nc1ccc(C(=O)N/N=C/c2cc(Br)cc(Br)c2O)cc1
Second: CCN(CC)c1ccc(/C=N\NC(=O)c2cccc3cc[nH]c23)cc1
The AC26 of the first is 5.3-fold higher: 9890 nM for the first, 1860 nM for the second.

Compared with `COc1ccc(-c2nc3c(s2)CCc2onc(-c4ccc(OC)cc4)c2-3)cc1`, `Cc1ccc(-c2nc(N(C)C3CCN(C)CC3)c3ccccc3n2)cc1` is 3.6-fold lower in AC26: 14400 nM for the first, 4000 nM for the second.

First: COc1ccccc1OCC(=O)NNC(=O)c1ccoc1C
Second: COc1ccccc1C(=O)Nc1ccc2c(c1)nc(CCNC(=O)c1ccco1)n2C
The AC26 of the first is 2.1-fold lower: 722 nM for the first, 1550 nM for the second.

Compared with `CC=Cc1cc2c(c(=O)o1)C(=O)C(O)C(C)O2` (stereo not given), `COC(=O)C(=Cc1ccc(-c2ccsc2C(=O)OC)o1)C(=O)OC` is 1.8-fold higher in AC26: 5300 nM for the first, 9800 nM for the second.

First: Cc1[nH][nH]c(=O)c1C(c1ccc(-c2cccc(Cl)c2)o1)c1c(C)[nH][nH]c1=O
Second: Cc1[nH]nc2c1C(c1ccc(-c3ccc(Cl)cc3)o1)C(C#N)=C(N)O2 (stereo not given)
The AC26 of the first is lower: less than 1.2 nM for the first, 1140 nM for the second.

Compared with `O=C1N[C@H]2CC=C[C@H]2N(Cc2cccs2)c2ccccc21`, `CC(C)(C)n1nnnc1C(c1ccccc1)N1CCc2ccccc2C1` (stereo not given) is 16-fold higher in AC26: 895 nM for the first, 13900 nM for the second.

Compared with `CSC1=NC(C(Cl)(Cl)Cl)N=C(c2ccccc2)N1` (stereo not given), `c1ccc(C2=Nn3c(nnc3-c3n[nH]c4c3CCC4)SC2)cc1` is 2.7-fold higher in AC26: 1470 nM for the first, 4020 nM for the second.

Going from `CCOc1ccc(NC(=S)NC(=O)/C=C/c2ccc(C)cc2)c([N+](=O)[O-])c1` to `CCOc1ccc(Nc2nc(N(C)c3ccccc3)nc(N)c2[N+](=O)[O-])cc1`, the AC26 falls from 3930 nM to 92.1 nM (43-fold).

Compared with `Nc1ncnc(Sc2ccc(Cl)cc2)c1[N+](=O)[O-]`, `CNc1ncnc(Sc2ccc(Cl)cc2)c1[N+](=O)[O-]` is 3-fold lower in AC26: 13400 nM for the first, 4540 nM for the second.

Compared with `COCCCNC(=O)Cc1c(C)c2c(cc(C)c3c(C(C)(C)C)coc32)oc1=O`, `CCOC(=O)N1CCc2cc(OC)c(OC)c3c2c1cc1cc(OC)c(OC)cc13` is 7.4-fold higher in AC26: 1510 nM for the first, 11100 nM for the second.

Going from `O=S(=O)([N-]c1nc2ccccc2nc1-n1cc[n+](Cc2ccccc2)c1)c1ccc(Cl)cc1` to `COc1ccc([C@@H]2[C@@H]3C(=O)N(C(C)(C)C)C(=O)[C@@H]3[C@]3(Cc4ccccc4)C(=O)N(c4cccc(Cl)c4)C(=O)N23)cc1`, the AC26 rises from 101 nM to 2990 nM (30-fold).

`CCOc1ccc(N2C(=O)Nc3ccccc3C2(O)C(=O)N2CCN(c3ccccn3)CC2)cc1` (stereo not given) and `CCc1ccc(N2C(=O)Nc3ccccc3C2(O)C(=O)N2CCN(c3ccccn3)CC2)cc1` (stereo not given) are within 1.5-fold of each other in AC26: 880 nM for the first, 625 nM for the second.

`Cc1ccccc1NC(=O)Cn1nnc(C(=O)NCc2ccco2)c1N` and `CN(/N=C/c1ccc(N(C)C)cc1)C1=NS(=O)(=O)c2ccccc21` are within 1.5-fold of each other in AC26: 1770 nM for the first, 1610 nM for the second.

Compared with `Cc1cccc(/C=N\Nc2cn[nH]c(=O)c2Cl)c1`, `O=C1NC(=O)C(=Cc2c(Cl)cccc2Cl)C(=O)N1` is 2-fold lower in AC26: 4560 nM for the first, 2240 nM for the second.

`OC1CCCN(Cc2ccc3ccc4cccc5ccc2c3c45)C1` (stereo not given) and `O=C(/C=C/c1cccc([N+](=O)[O-])c1)c1ccc2c(c1)OCCO2` are within 1.5-fold of each other in AC26: 4270 nM for the first, 3330 nM for the second.

Source: PubChem BioAssay AID624491 (Broad Institute, 2012)
